# Measured values from patent publication US20200276150A1, “PARENTERAL FORMULATIONS OF MACROLIDE ANTIBIOTICS” (Tetard, Inc., priority 2010, published 2020).
# “Also recorded” adds a separate entry of the source.
# Key:
# [1] = Saturated solubility of CEM-101 in a range of vehicles (Example 5); format: physicochemical; settings: for solubility at 72 h: thermodynamic from solid, mixed 72 hours, HPLC
# Method: EXAMPLE 5. Solubility of CEM-101 in a Range of Vehicles. […] Additional CEM-101 is added to vehicles which completely solubilized the CEM-101 API within 24 hours. Samples are allowed to mix for a total of 72 hours. Once mixed, the samples are assessed visually, centrifuged and then diluted to appropriate concentration for analysis by HPLC to determine saturated solubility. Without being bound by theory, it is believed herein that the vehicles are in situ salt forming compounds when mixed with CEM-101. Studies were conducted by weighing approximately 1000 mg of each vehicle into a number of vials. A known amount of CEM-101 was then added into each vial and the resulting mixture was mixed on a vortex prior to mixing overnight on a roller mixer.
# [2] = Cardiac tissue levels of CEM-101 (statement, no method); settings: compared to other macrolides and ketolides
# [3] = CEM-101 in 60 mM tartaric acid with and without 0.9% NaCl, concentration by HPLC (Examples 3A, 3B); format: physicochemical
# Method: EXAMPLE 3A. […] On addition of NaCl, the resultant solution went clear on mixing for an hour (53.0 mg/mL by HPLC). […] EXAMPLE 3B. Compositions of CEM-101 in an Unbuffered Solution for Parenteral Administration and Studies in 0.9% NaCl solution (˜8% w/v CEM-101). Approximately 90 mg CEM-101 was dissolved in 1 mL 60 mM tartaric acid pH 2.16 and allowed to mix overnight.
# [4] = IV administration to dogs, observation for pain response (Example 11); format: in vivo, Beagle dogs (Canis familiaris); settings: IV infusion about 90 minutes, 5, 10, 15 mg/kg/d
# Method: EXAMPLE 11. Pharmacokinetics (PK) in dogs following IV administration. […] The plasma level of CEM-101 and toxicokinetics at 0-24 hours is measured (jugular venipuncture, predose, then immediately following completion of infusion at 0, 0.5, 1, 4, 8, and 24 hours). Animal body weight is also periodically measured. […] Total dose volume is 15 mL/kg, and intravenous infusion is carried out over about 90 minutes (10 mL/kg/h) via disposable indwelling catheter into one of the cephalic and/or saphenous veins. Vein or vein location is changed at least every seven days. Control animals receive vehicle alone. An illustrative formulation is CEM-101 in the following vehicle comprising or consisting essentially of L(+)-tartaric acid, D-mannitol, SWFI, 1N HaOH, and optionally 1-thioglycerol, as described herein. Following dosing, a portion of the animals are immediately euthanized for necropsy evaluation. A “recovery” group is observed for an additional 28 days without dosing, then euthanized for necropsy evaluation. It is appreciated that both monkeys and dogs elicit particular sensitivity to pain, and therefore may be observed for pain response upon administration of the test articles.
# [5] = test system: azithromycin-resistant strains; assay: Antibacterial activity compared with azithromycin (statement, no method); format: cell-based
# [6] = QT effects of CEM-101 (statement, no method); settings: compared to other macrolides and ketolides
# [7] = IV administration to monkeys, observation for pain response (Example 10); format: in vivo, Cynomolgus monkeys (Macaca fasicularis); settings: IV infusion about 90 minutes, 5, 12.5, 25 mg/kg/d
# Method: EXAMPLE 10. Pharmacokinetics (PK) in monkeys following IV administration. […] The plasma level of CEM-101 and toxicokinetics at 0-24 hours is measured (venipuncture, predose, then immediately following completion of infusion at 0, 0.5, 1, 4, 8, and 24 hours). Animal body weight is also periodically measured. […] Total dose volume is 15 mL/kg, and intravenous infusion is carried out over about 90 minutes (10 mL/kg/h) via disposable indwelling catheter into one of the brachial and/or saphenous veins. Vein or vein location is changed at least every seven days. Control animals receive vehicle alone. An illustrative formulation is CEM-101 in the following vehicle comprising or consisting essentially of L(+)-tartaric acid, D-mannitol, SWFI, 1N HaOH, and optionally 1-thioglycerol, as described herein. Following dosing, a portion of the animals are immediately euthanized for necropsy evaluation. A “recovery” group is observed for an additional 28 days without dosing, then euthanized for necropsy evaluation. It is appreciated that both monkeys and dogs elicit particular sensitivity to pain, and therefore may be observed for pain response upon administration of the test articles.
# [8] = Excipient compatibility by HS-MCDSC (Example 8); format: physicochemical; settings: API-excipient binary pair with CEM-101, 1:1 ratio, 30-80° C.
# Method: EXAMPLE 8. Determination of Compatibility of Excipients for Lyophilized Pharmaceutical Composition. Excipient compatibility is assessed using high sensitivity multi-cell differential scanning calorimetry (HS-MCDSC). The high sensitivity multi-cell differential scanning calorimeter is an analytical instrument designed to measure heat capacity and changes in heat capacity as a function of temperature.
# Stability (of an individual component) is usually assessed by loading a sample of the material into a cell and measuring the heat-flow as a function of time. The instrument should rapidly detect any degradation processes occurring, and the absence of any heat responses gives confidence that the system under investigation is stable.
# A similar approach can be adopted for testing binary mixtures of the active pharmaceutical ingredient (API) and excipients. […] Any unexpected power change recorded in the drug-excipient mixture indicates a possible interaction between the two components.
# Calorimetric data were recorded using a high sensitivity MCDSC (CSC Model 4100 MCDSC, USA). Samples were run using API alone (ca. 50 mg), excipients alone (ca. 50 mg) and API-Excipient binary pairs (ca. 25 mg:25 mg, 1:1 ratio). Samples were weighed directly into the cells which were sealed with the metal caps provided and a rubber sealing disc to ensure an air-tight seal. Experiments were programmed as follows:
# The MCDSC consists of four cells contained in a loading chamber. The cells 1, 2 and 3 were filled with samples, while the 4th cell is always left empty and run as a blank. Prior to analysis, cells 1 to 3 were run empty with no samples to record the blank results which were then subtracted from subsequent results obtained from samples analysed. Data were recorded every 10 s using the dedicated software package CpCalc. Data analysis was performed using CpCalc and Microsoft Excel.
# The calorimeter records all the events occurring in each of the sample cell. The approach adopted here was to calculate the power-time data obtained for the active and excipients alone. The calculated data is then used to create an ‘expected’ theoretical trace as an average of the signals coming from both API and excipients at a mixture of 1:1 ratio.
# [9] = Storage of lyophilized cakes at 5° C., 25° C./60% RH and 40° C./75% RH; format: physicochemical; settings: 7, 13 and 28 days
# Method: Cakes were stored at 5° C., 25° C./60% RH and 40° C./75% RH. Samples were evaluated at 7, 13 and 28 days.
# [10] = Freeze drying, visual observation of the cakes (Example 9); format: physicochemical; settings: for Visual observation of the cake: excipient at its maximum concentration in CEM-101 IV solution, frozen -25° C. 2 h, freeze dried 24 h
# Method: 1 mL of CEM-101 IV solution was dispensed into in a clear glass vial, followed by the careful addition of small amounts of the excipient under investigation (either 50 or 100 mg). The solution in the vials were mixed using a vortex mixer and sonicated until a clear solution was observed. The final data is shown below, and reflects the maximum possible amount of each excipient used in the freeze dried formulations. Subsequently, all clear vials were frozen at −25° C. for 2 h. The caps were then removed and the vials were covered with a small tissue paper and placed in the freeze drier for 24 h (in the dark). The cakes were then inspected and the following visual observations detailed in the table below were made.
# Based on the results above, three excipients with no interaction with the API were selected and solutions containing various ratio combinations of the API and excipient were prepared. These solutions were then frozen at −25° C., then lyophilised for 24 h, in the dark. The resultant cakes were then examined visually to determine the integrity of the plugs.
# [11] = Solubility of each excipient in CEM-101 IV solution (Example 9); format: physicochemical; settings: in 1 mL CEM-101 IV solution (50 mg/mL)
# Method: EXAMPLE 9. Characterization of properties of excipients for freeze drying to prepare lyophilized pharmaceutical composition. […] The solution in the vials were mixed using a vortex mixer and sonicated until a clear solution was observed. […] The caps were then removed and the vials were covered with a small tissue paper and placed in the freeze drier for 24 h (in the dark).
# [12] = HPLC assay and total impurities of formulations (Example 6); format: physicochemical
# Method: Turbid samples were centrifuged prior to analysis. Total Impurities are assessed by % HPLC peak area.
Molecule,MC-DSC Results (No Interaction/Interaction) [8],Cake colour on storage [9],Visual observation of lyophilizate ([10]; API:Excipient Ratio 1:1),Visual observation of lyophilizate ([10]; API:Excipient Ratio 1:2),Visual observation of lyophilizate ([10]; API:Excipient Ratio 1:3),Visual observation of lyophilizate ([10]; API:Excipient Ratio 1:4),Visual observation of the cake [10],"Conc. (mg/mL), maximum possible amount of excipient giving a clear solution [11] [mg/mL]",other results
CC[C@H]1OC(=O)[C@@](C)(F)C(=O)[C@H](C)[C@@H](O[C@@H]2O[C@H](C)C[C@H](N(C)C)[C@H]2O)[C@@](C)(OC)C[C@@H](C)C(=O)[C@H](C)[C@H]2N(CCCCn3cc(-c4cccc(N)c4)nn3)C(=O)O[C@]12C [CEM-101],–,–,–,–,–,–,–,–,"pH of resultant solution ([1]; CEM-101 in 1M Ascorbic Acid (sample 17)): 1.93; pH of resultant solution ([1]; CEM-101 in 1M Methane sulphonic Acid (sample 16)): 0.03; pH of resultant solution ([1]; CEM-101 in 1M Tartaric Acid (sample 19)): 1.27; solubility at 72 h ([1]; pH 0.03, simulated gastric fluid, vehicle 1M Methane sulphonic Acid (sample 16)): 100 mg/mL; solubility at 72 h ([1]; pH 1.27, simulated gastric fluid, vehicle 1M Tartaric Acid (sample 19)): 100 mg/mL; solubility at 72 h ([1]; pH 1.93, simulated gastric fluid, vehicle 1M Ascorbic Acid (sample 17)): 100 mg/mL; solubility at 72 h ([1]; simulated gastric fluid, vehicle 1M Hydrochloric Acid (sample 15)): 100 mg/mL; Cardiac tissue levels / accumulation [2]: do not accumulate in cardiac tissue; also recorded: do not exhibit high cardiac tissue levels; Concentration of clear solution by HPLC ([3]; 51.38 mg CEM-101 in 1 mL 60 mM tartaric acid pH 2.16, mixed overnight (5% initial formulation)): 50400 µg/mL; Concentration by HPLC after addition of 0.9% w/v NaCl ([3]; 5% NaCl formulation, clear on mixing for an hour): 53000 µg/mL; Concentration by HPLC after addition of 0.9% w/v NaCl ([3]; 8% NaCl formulation, white lump formed, mixed approx. 2 hours): 3900 µg/mL; solubility ([3]; aqueous buffer, thermodynamic from solid, approx. 90 mg CEM-101 in 1 mL 60 mM tartaric acid pH 2.16, mixed overnight (8% initial formulation), read-out: Saturated solubility by HPLC): 83 mg/mL; Pain response upon IV administration [4]: no reaction by the animal was observed; Activity against azithromycin-resistant strains [5]: active; Potency relative to azithromycin ([5]; more potent than azithromycin): 8-16 times; QT effects / QT prolongation [6]: do not cause QT prologation; also recorded: low QT effects or no QT effects; Pain response upon IV administration [7]: no reaction by the animal was observed"
NCC(=O)O [Glycine],No,remained white,Good solid cake- with uniform,Good solid cake- with uniform,Good solid cake- with uniform,Good solid cake- with uniform,Good solid cake-,–,MC-DSC Results (No Interaction/Interaction) ([8]; listed as glycine): compatible
OC[C@@H](O)[C@@H](O)[C@H](O)[C@H](O)CO [Mannitol],No,remained white,Good solid cake- with uniform,Good solid cake- with uniform,Good solid cake- with uniform,Good solid cake- with uniform,Good solid cake-,200,MC-DSC Results (No Interaction/Interaction) ([8]; listed as mannitol): compatible
CC[C@H]1OC(=O)[C@@](C)(F)C(=O)[C@H](C)[C@@H](O[C@@H]2O[C@H](C)C[C@H](N(C)C)[C@H]2O)[C@@](C)(OC)C[C@@H](C)C(=O)[C@H](C)[C@H]2N(CCCCn3cc(-c4cccc(N)c4)nn3)C(=O)O[C@]12C [Preformulation],–,–,–,–,–,–,–,–,Total Impurities [12]: 2.34 % HPLC peak area
OC[C@H]1O[C@@](CO)(O[C@H]2O[C@H](CO)[C@@H](O)[C@H](O)[C@H]2O)[C@@H](O)[C@@H]1O [Sucrose],No,Some cake yellowing,Good solid cake- with uniform,Good solid cake- with uniform,Good solid cake- with uniform,Good solid cake- with uniform,–,–,MC-DSC Results (No Interaction/Interaction) ([8]; listed as sucrose): compatible
OC[C@H]1O[C@H](O[C@H]2O[C@H](CO)[C@@H](O)[C@H](O)[C@H]2O)[C@H](O)[C@@H](O)[C@@H]1O [Trehalose],Interaction,–,–,–,–,–,Poor cake-puffing,700,–
Isomalt,Interaction,–,–,–,–,–,Good solid cake-,600,–
